Assay [1] addresses T1, human ADAMTS-5 (Homo sapiens (Human), UniProt Q9UNA0). To be noted: read-out: hADAMTS-5 potency IC50.
Assay [2] concerns the target T1, human ADAMTS-5. To be noted: read-out: hADAMTS-5 potency IC50. This is another data set of the same source.
Procedure: Finally, the fluorescence is read on the Envision (Perkin Elmer) after an incubation of 90 min at 37° C.
For assay [3], the target named is human MMP13 (Homo sapiens (Human), UniProt P45452). To be noted: read-out: hMMP-13 potency IC50.
Procedure: Human MMP13 is preactivated by incubated the enzyme in the same buffer complemented with 1 mM freshly prepared p-Aminophenylmercuric acetate (AMPA) for 1 hour at 37° C.
Assay [4] has as its target human TACE (Homo sapiens (Human), UniProt P78536). To be noted: read-out: TACE potency IC50.

Read-outs that look alike come from different tables or passages of the source. Where only a bound is given, the exact number is not on record here.

T1 sequence (Q9UNA0 262-930): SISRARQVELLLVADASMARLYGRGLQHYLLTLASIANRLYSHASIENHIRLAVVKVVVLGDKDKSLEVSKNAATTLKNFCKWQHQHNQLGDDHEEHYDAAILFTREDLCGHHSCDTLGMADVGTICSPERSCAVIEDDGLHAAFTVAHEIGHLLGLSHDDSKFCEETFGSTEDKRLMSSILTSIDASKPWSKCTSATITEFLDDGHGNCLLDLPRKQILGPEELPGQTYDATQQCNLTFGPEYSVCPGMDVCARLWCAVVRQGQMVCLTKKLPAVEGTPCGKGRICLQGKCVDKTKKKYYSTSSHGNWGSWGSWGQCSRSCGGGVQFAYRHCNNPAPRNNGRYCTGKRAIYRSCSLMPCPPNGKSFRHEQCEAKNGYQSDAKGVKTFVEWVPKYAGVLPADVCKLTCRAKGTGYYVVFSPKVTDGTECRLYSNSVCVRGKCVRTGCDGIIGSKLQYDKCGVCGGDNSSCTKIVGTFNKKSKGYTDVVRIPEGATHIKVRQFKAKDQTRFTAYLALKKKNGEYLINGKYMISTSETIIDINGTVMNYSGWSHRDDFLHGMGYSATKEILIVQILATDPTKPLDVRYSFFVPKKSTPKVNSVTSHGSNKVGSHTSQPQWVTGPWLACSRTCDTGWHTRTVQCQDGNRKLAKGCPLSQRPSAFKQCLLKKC
human TACE, sequence (P78536 whole entry, looked up, change not shown): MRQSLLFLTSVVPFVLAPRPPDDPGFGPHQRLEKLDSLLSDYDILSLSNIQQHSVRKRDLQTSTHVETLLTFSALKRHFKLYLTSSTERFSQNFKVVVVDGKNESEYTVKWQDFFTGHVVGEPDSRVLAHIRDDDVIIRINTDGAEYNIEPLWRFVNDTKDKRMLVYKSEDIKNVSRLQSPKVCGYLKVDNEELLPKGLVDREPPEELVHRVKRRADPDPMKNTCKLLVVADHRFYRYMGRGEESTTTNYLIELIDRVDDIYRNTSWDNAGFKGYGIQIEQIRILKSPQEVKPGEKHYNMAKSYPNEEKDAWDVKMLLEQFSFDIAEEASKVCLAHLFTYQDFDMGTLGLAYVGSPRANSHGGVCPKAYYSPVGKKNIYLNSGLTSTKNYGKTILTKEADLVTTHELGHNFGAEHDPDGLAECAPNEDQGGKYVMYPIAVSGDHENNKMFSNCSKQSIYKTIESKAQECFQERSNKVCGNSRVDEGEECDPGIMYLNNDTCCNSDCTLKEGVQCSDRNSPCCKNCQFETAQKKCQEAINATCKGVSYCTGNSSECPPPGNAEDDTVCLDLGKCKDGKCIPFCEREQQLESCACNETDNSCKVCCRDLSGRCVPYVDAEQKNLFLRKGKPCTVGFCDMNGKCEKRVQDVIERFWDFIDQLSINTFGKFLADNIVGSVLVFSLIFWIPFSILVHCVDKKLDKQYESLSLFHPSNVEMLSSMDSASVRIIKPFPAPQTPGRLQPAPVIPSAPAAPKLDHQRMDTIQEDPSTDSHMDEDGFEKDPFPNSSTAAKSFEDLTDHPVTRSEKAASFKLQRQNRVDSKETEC

In the case of `CC1(CCC(=O)N2CCN(c3ccccc3C#N)CC2)NC(=O)NC1=O` (stereo not drawn) [compound 29], the values for the IC50 in assay [1] and in assay [2] were greater than 12000 nM and greater than 4 µM, respectively.
`CC1(CCC(=O)N2CCN(c3ccccc3F)CC2)NC(=O)NC1=O` (stereo not drawn) [compound 30, 5-[3-[4-(2-fluorophenyl)piperazin-1-yl]-3-oxo-propyl]-5-methyl-imidazolidine-2,4-dione]: the IC50 (as a rule, the midpoint of a concentration-inhibition curve) in assay [1] was greater than 4000 nM; in assay [2], greater than 4 µM.
`CC1(CCC(=O)N2CCN(c3cccnc3)CC2)NC(=O)NC1=O` (stereo not drawn) [compound 43, 5-methyl-5-[3-oxo-3-[4-(3-pyridyl)piperazin-1-yl]propyl]imidazolidine-2,4-dione]: the IC50 in assay [3] was greater than 20000 nM; in assay [1] it was 1530 nM; in assay [4] it was greater than 20 µM.
Regarding `O=C1NC(=O)C(CCC(=O)N2CCN(c3cccnc3)CC2)(c2ccccc2)N1` (stereo not drawn) [compound 45, 5-[3-oxo-3-[4-(3-pyridyl)piperazin-1-yl]propyl]-5-phenyl-imidazolidine-2,4-dione], the IC50 in assay [1] is 204 nM; in assay [4], greater than 20 µM.
As for `CC1(CCC(=O)N2CCN(c3ccc(F)c(Cl)c3)CC2)NC(=O)NC1=O` (stereo not drawn) [compound 52, 5-[3-[4-(3-chloro-4-fluoro-phenyl)piperazin-1-yl]-3-oxo-propyl]-5-methyl-imidazolidine-2,4-dione], the IC50 in assay [1] is 281 nM; in assay [4], greater than 20 µM.
Regarding `Cc1c(F)cccc1N1CCN(C(=O)CCC2(C)NC(=O)NC2=O)CC1` (stereo not drawn) [compound 60, 5-[3-[4-(3-fluoro-2-methyl-phenyl)piperazin-1-yl]-3-oxo-propyl]-5-methyl-imidazolidine-2,4-dione], the IC50 is greater than 20000 nM in assay [3], 1160 nM in assay [1] and greater than 20 µM in assay [4].
Consider `CC1CN(C(=O)CCC2(c3ccccc3)NC(=O)NC2=O)CCN1c1ccccc1` (stereo not drawn) [compound 62, 5-[3-(3-methyl-4-phenyl-piperazin-1-yl)-3-oxo-propyl]-5-phenyl-imidazolidine-2,4-dione], for which the values for the IC50 in assay [1] and in assay [4] were 293 nM and greater than 20 µM, respectively.
In the case of `CC1CN(C(=O)CCC2(C)NC(=O)NC2=O)CCN1c1ccccc1` (stereo not drawn) [compound 63, 5-methyl-5-[3-(3-methyl-4-phenyl-piperazin-1-yl)-3-oxo-propyl]imidazolidine-2,4-dione], the IC50 in assay [1] was 1240 nM; in assay [4], greater than 20 µM.
With `CC1(CCC(=O)N2CCN(c3ccc(Cl)c(Cl)c3)CC2)NC(=O)NC1=O` (stereo not drawn) [compound 67, 5-[3-[4-(3,4-dichlorophenyl)piperazin-1-yl]-3-oxo-propyl]-5-methyl-imidazolidine-2,4-dione], the IC50 is greater than 3500 nM in assay [3], 152 nM in assay [1] and greater than 4 µM in assay [4].
On to `CC1(CCC(=O)N2CCN(c3cc(F)cc(Cl)c3)CC2)NC(=O)NC1=O` (stereo not drawn) [compound 117, 5-[3-[4-(3-chloro-5-fluoro-phenyl)piperazin-1-yl]-3-oxo-propyl]-5-methyl-imidazolidine-2,4-dione], for which the IC50 in assay [3] was greater than 4000 nM; in assay [1], 211 nM; in assay [4] it was greater than 4 µM.
For `COc1cccc(C2(CCC(=O)N3CCN(c4cccc(Cl)c4)CC3)NC(=O)NC2=O)c1` (stereo not drawn) [compound 123, 5-[3-[4-(3-chlorophenyl)piperazin-1-yl]-3-oxo-propyl]-5-(3-methoxyphenyl)imidazolidine-2,4-dione] the same measures were 919 nM, 95 nM and 1.64 µM.
As for `N#Cc1ccc(C2(CCC(=O)N3CCN(c4cccc(Cl)c4)CC3)NC(=O)NC2=O)cc1` (stereo not drawn) [compound 125, 4-[4-[3-[4-(3-chlorophenyl)piperazin-1-yl]-3-oxo-propyl]-2,5-dioxo-imidazolidin-4-yl]benzonitrile], the values for the IC50 in assay [3], in assay [1] and in assay [4] were 2120 nM, 53 nM and 1.8 µM, respectively.

Values taken from patent US9926281B2 (priority 2014, dated 2018).
